The target of data set [1] is T1, glucagon receptor (Homo sapiens, UniProt P47871).
T1 construct: expressed in transfected cells
Put plainly: Assay (I) Glucagon activity (cAMP biosensor, FLIPR). In kind it is cell-based.

The nature of data set [2]: Assay (X) Chemical stability assessment by RP-UPLC. Particulars: pH 8.15, 14 days at 37° C. vs 5° C., 333 μM. In kind it is physicochemical. As for the experimental part: Chemical Stability Assessment
Lyophilized samples were dissolved in buffer (see below for detailed compositions) to a final concentration of 333 μM and a pH of 8.15, and were incubated for 14 days at 5° C. and 37° C. followed by RP-UPLC analysis. Purity was defined as the area percentage of the main peak in relation to the total area of all integrated peaks in each chromatogram. Purity loss after 14 days at 37° C. was determined as the difference in purity between the samples incubated at 5° C. and 37° C., divided by the purity of the sample after incubation for 14 days at 5° C.
RP-UPLC analysis was performed using a Waters BEH130 2.1 mm×150 mm, 1.7 μm column operated at 50° C. and a flow rate of 0.4 mL/min using a mobile phase system consisting of typically A: 50 mM Phosphate, 10 w/w % Acetonitrile pH 3 and B: 80 v/v Acetonitrile. UV-detection was performed at 215 nm. The typical gradient profile used for most of the samples is shown below.
For some individual analogues eluting at substantially different retention times compared with the majority of analogues, some adjustments to the gradient profile were made to better enable purity assessment comparison across samples. Also the composition of the channel B mobile phase component was in some of the analyses exchanged for a 90 v/v % Acetonitrile solvent solution in an attempt to better handle carry-over of material from one injection to the next in the sequence. This was however compensated for by recalculating the gradient profile appropriately.
Buffer: • 50 mM Dinatriumphosphatdihydrat • 184 mM Propylenglycol • 58 mM Phenol • pH adjusted to 8.15 with H3PO4. In cases where pH was adjusted to 8.15 after re-suspension of analogues, 0.2 M NaOH was used. Assay (XI) Pharmacokinetic Study in Minipigs

Numbered stars: 1 amine (or outer) side, 2 acyl side, 3 side chain; on linkers, the order of the positions; unused ones are H or OH. Side chains are listed from the residue outwards. Peptide text beside a SMILES is read from it. * marks the point of attachment. C18 diacid = O=C(O)CCCCCCCCCCCCCCCCC(=O)*; C16 diacid = O=C(O)CCCCCCCCCCCCCCC(=O)*; γGlu = O=C(O)[C@H](CCC(=O)[*:2])N[*:1]; AEEA = NCCOCCOCC(=O)O

T1 sequence (P47871 26-477): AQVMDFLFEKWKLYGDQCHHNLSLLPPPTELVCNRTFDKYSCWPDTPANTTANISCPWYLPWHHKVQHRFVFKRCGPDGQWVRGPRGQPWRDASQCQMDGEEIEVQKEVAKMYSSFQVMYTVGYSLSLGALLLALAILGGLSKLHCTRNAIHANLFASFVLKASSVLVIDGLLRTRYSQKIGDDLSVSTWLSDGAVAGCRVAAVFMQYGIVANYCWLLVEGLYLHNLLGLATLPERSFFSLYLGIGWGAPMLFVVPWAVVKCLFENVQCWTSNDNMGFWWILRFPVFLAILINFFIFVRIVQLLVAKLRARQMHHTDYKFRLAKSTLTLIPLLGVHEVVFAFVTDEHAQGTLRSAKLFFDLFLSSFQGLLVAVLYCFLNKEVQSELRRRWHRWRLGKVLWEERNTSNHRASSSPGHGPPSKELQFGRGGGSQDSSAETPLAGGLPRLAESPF

Usually EC50 stands for the concentration needed to bring the measured effect to its halfway point. Higher therefore signals lower potency in that assay. Molecule `CC[C@H](C)[C@H](NC(=O)[C@H](CC(=O)O)NC(=O)[C@H](CC(C)C)NC(=O)[C@H](Cc1ccc(O)cc1)NC(=O)[C@H](CCCCN)NC(=O)[C@H](CO)NC(=O)[C@H](Cc1ccc(O)cc1)NC(=O)[C@H](CC(=O)O)NC(=O)[C@H](CO)NC(=O)[C@@H](NC(=O)[C@H](Cc1ccccc1)NC(=O)[C@@H](NC(=O)CNC(=O)[C@H](CCC(N)=O)NC(=O)[C@H](CO)NC(=O)[C@@H](N)Cc1c[nH]cn1)[C@@H](C)O)[C@@H](C)O)C(=O)N[C@@H](CCCNC(=N)N)C(=O)N[C@@H](CCCNC(=N)N)C(=O)N[C@@H](C)C(=O)N[C@@H](CCC(N)=O)C(=O)N[C@@H](CC(=O)O)C(=O)N[C@@H](Cc1ccccc1)C(=O)N[C@H](C(=O)N[C@@H](CCCCNC(=O)CC[C@H](NC(=O)CC[C@H](NC(=O)CC[C@H](NC(=O)CC[C@H](NC(=O)CCCCCCCCCCCCCCCCC(=O)O)C(=O)O)C(=O)O)C(=O)O)C(=O)O)C(=O)N[C@@H](Cc1c[nH]c2ccccc12)C(=O)N[C@@H](CC(C)C)C(=O)N[C@@H](CC(C)C)C(=O)N[C@@H](CO)C(=O)N[C@H](C(N)=O)[C@@H](C)O)C(C)C` [Example 75, N^ε24-[(4S)-4-carboxy-4-[[(4S)-4-carboxy-4-[[(4S)-4-carboxy-4-[[(4S)-4-carboxy-4-(17-carboxyheptadecanoylamino)butanoyl]amino]butanoyl]amino]butanoyl]amino]butanoyl]-[Ile16,Lys24,Leu27,Ser28]-Glucagon amide] showed a concentration giving a half-maximal response (EC50) in data set [1] of 0.402 nM. For the same molecule, the “Chemical stability [Purity loss/14 days 37 C.]” value in data set [2] turned out to be 3.6%.

`CC(C)C[C@H](NC(=O)[C@H](Cc1ccc(O)cc1)NC(=O)[C@H](CCCCN)NC(=O)[C@H](CO)NC(=O)[C@H](Cc1ccc(O)cc1)NC(=O)[C@H](CC(=O)O)NC(=O)[C@H](CO)NC(=O)[C@@H](NC(=O)[C@H](Cc1ccccc1)NC(=O)[C@@H](NC(=O)CNC(=O)[C@H](CCC(N)=O)NC(=O)[C@H](CO)NC(=O)[C@@H](N)Cc1c[nH]cn1)[C@@H](C)O)[C@@H](C)O)C(=O)N[C@@H](CC(=O)O)C(=O)N[C@@H](C)C(=O)N[C@@H](CCCNC(=N)N)C(=O)N[C@@H](CCCNC(=N)N)C(=O)N[C@@H](C)C(=O)N[C@@H](CCC(N)=O)C(=O)N[C@@H](CC(=O)O)C(=O)N[C@@H](Cc1ccccc1)C(=O)N[C@H](C(=O)N[C@@H](CCCCNC(=O)CC[C@H](NC(=O)CC[C@H](NC(=O)COCCOCCNC(=O)COCCOCCNC(=O)CC[C@H](NC(=O)CCCCCCCCCCCCCCCCC(=O)O)C(=O)O)C(=O)O)C(=O)O)C(=O)N[C@@H](Cc1c[nH]c2ccccc12)C(=O)N[C@@H](CC(C)C)C(=O)N[C@@H](CCC(=O)O)C(=O)N[C@@H](CO)C(=O)N[C@H](C(=O)O)[C@@H](C)O)C(C)C` [Example 57, N^ε24-[(4S)-4-carboxy-4-[[(4S)-4-carboxy-4-[[2-[2-[2-[[2-[2-[2-[[(4S)-4-carboxy-4-(17-carboxyheptadecanoylamino)butanoyl]amino]ethoxy]ethoxy]acetyl]amino]ethoxy]ethoxy]acetyl]amino]butanoyl]amino]butanoyl]-[Ala16,Lys24,Glu27,Ser28]-Glucagon] came in with an EC50 in data set [1] of 0.07 nM. Besides, the “Chemical stability [Purity loss/14 days 37 C.]” value in data set [2] is 7.9%.

In the case of `CC(C)C[C@H](NC(=O)[C@H](Cc1ccc(O)cc1)NC(=O)[C@H](CCCNC(=N)N)NC(=O)[C@H](CO)NC(=O)[C@H](Cc1ccc(O)cc1)NC(=O)[C@H](CC(=O)O)NC(=O)[C@H](CO)NC(=O)[C@@H](NC(=O)[C@H](Cc1ccccc1)NC(=O)[C@@H](NC(=O)CNC(=O)[C@H](CCC(N)=O)NC(=O)[C@H](CO)NC(=O)[C@@H](N)Cc1c[nH]cn1)[C@@H](C)O)[C@@H](C)O)C(=O)N[C@@H](CCC(=O)O)C(=O)N[C@@H](CO)C(=O)N[C@@H](CCCNC(=N)N)C(=O)N[C@@H](CCCNC(=N)N)C(=O)N[C@@H](C)C(=O)N[C@@H](CCC(N)=O)C(=O)N[C@@H](CC(=O)O)C(=O)N[C@@H](Cc1ccccc1)C(=O)N[C@H](C(=O)N[C@@H](CCCCNC(=O)CC[C@H](NC(=O)CC[C@H](NC(=O)COCCOCCNC(=O)COCCOCCNC(=O)CC[C@H](NC(=O)CCCCCCCCCCCCCCCCC(=O)O)C(=O)O)C(=O)O)C(=O)O)C(=O)N[C@@H](Cc1c[nH]c2ccccc12)C(=O)N[C@@H](CC(C)C)C(=O)N[C@@H](CC(C)C)C(=O)N[C@@H](CO)C(=O)N[C@H](C(=O)O)[C@@H](C)O)C(C)C` [Example 14, N^ε24-[(4S)-4-carboxy-4-[[(4S)-4-carboxy-4-[[2-[2-[2-[[2-[2-[2-[[(4S)-4-carboxy-4-(17-carboxyheptadecanoylamino)butanoyl]amino]ethoxy]ethoxy]acetyl]amino]ethoxy]ethoxy]acetyl]amino]butanoyl]amino]butanoyl]-[Arg^12,Glu^15,Lys^24,Leu^27,Ser^25]-Glucagon] (H-HSQGTFTSDYSRYLESRRAQDFVK([γGlu-γGlu-AEEA-AEEA-γGlu-C18 diacid])WLLST-OH; N-terminus and C-terminus assumed), the “Chemical stability [Purity loss/14 days 37 C.]” value in data set [2] stood at 8.6%.

As for `CC(C)C[C@H](NC(=O)[C@H](CC(=O)O)NC(=O)[C@H](CC(C)C)NC(=O)[C@H](Cc1ccc(O)cc1)NC(=O)[C@H](CCCNC(=N)N)NC(=O)[C@H](CO)NC(=O)[C@H](Cc1ccc(O)cc1)NC(=O)[C@H](CC(=O)O)NC(=O)[C@H](CO)NC(=O)[C@@H](NC(=O)[C@H](Cc1ccccc1)NC(=O)[C@@H](NC(=O)CNC(=O)[C@H](CCC(N)=O)NC(=O)[C@H](CO)NC(=O)[C@@H](N)Cc1c[nH]cn1)[C@@H](C)O)[C@@H](C)O)C(=O)N[C@@H](CCCNC(=N)N)C(=O)N[C@@H](CCCNC(=N)N)C(=O)N[C@@H](C)C(=O)N[C@@H](CCC(N)=O)C(=O)N[C@@H](CC(=O)O)C(=O)N[C@@H](Cc1ccccc1)C(=O)N[C@H](C(=O)N[C@@H](CCCCNC(=O)CC[C@H](NC(=O)CC[C@H](NC(=O)CC[C@H](NC(=O)CC[C@H](NC(=O)CCCCCCCCCCCCCCC(=O)O)C(=O)O)C(=O)O)C(=O)O)C(=O)O)C(=O)N[C@@H](Cc1c[nH]c2ccccc12)C(=O)N[C@@H](CC(C)C)C(=O)N[C@@H](CC(C)C)C(=O)N[C@@H](CO)C(=O)N[C@H](C(=O)O)[C@@H](C)O)C(C)C` [Example 74, N^ε24-[(4S)-4-carboxy-4-[[(4S)-4-carboxy-4-[[(4S)-4-carboxy-4-[[(4S)-4-carboxy-4-(15-carboxypentadecanoylamino)butanoyl]amino]butanoyl]amino]butanoyl]amino]butanoyl]-[Arg12,Leu16,Lys24,Leu27,Ser28]-Glucagon] (H-HSQGTFTSDYSRYLDLRRAQDFVK([γGlu-γGlu-γGlu-γGlu-C16 diacid])WLLST-OH), the 50% effective concentration (EC50) in data set [1] stood at 0.109 nM.

`CC(C)C[C@H](NC(=O)[C@H](Cc1c[nH]c2ccccc12)NC(=O)[C@H](CCCCNC(=O)CC[C@H](NC(=O)CC[C@H](NC(=O)COCCOCCNC(=O)COCCOCCNC(=O)CC[C@H](NC(=O)CCCCCCCCCCCCCCC(=O)O)C(=O)O)C(=O)O)C(=O)O)NC(=O)[C@@H](NC(=O)[C@H](Cc1ccccc1)NC(=O)[C@H](CC(=O)O)NC(=O)[C@H](CCC(N)=O)NC(=O)[C@H](C)NC(=O)[C@H](CCCNC(=N)N)NC(=O)[C@H](CCCNC(=N)N)NC(=O)[C@@H](NC(=O)[C@H](CC(=O)O)NC(=O)[C@H](CC(C)C)NC(=O)[C@H](Cc1ccc(O)cc1)NC(=O)[C@H](CCCNC(=N)N)NC(=O)[C@H](CO)NC(=O)[C@H](Cc1ccc(O)cc1)NC(=O)[C@H](CC(=O)O)NC(=O)[C@H](CO)NC(=O)[C@@H](NC(=O)[C@H](Cc1ccccc1)NC(=O)[C@@H](NC(=O)CNC(=O)[C@H](CCC(N)=O)NC(=O)[C@H](CO)NC(=O)[C@@H](N)Cc1c[nH]cn1)[C@@H](C)O)[C@@H](C)O)[C@@H](C)O)C(C)C)C(=O)N[C@@H](CC(C)C)C(=O)N[C@@H](CO)C(=O)N[C@H](C(=O)O)[C@@H](C)O` [Example 82, N^ε24-[(4S)-4-carboxy-4-[[(4S)-4-carboxy-4-[[2-[2-[2-[[2-[2-[2-[[(4S)-4-carboxy-4-(15-carboxypentadecanoylamino)butanoyl]amino]ethoxy]ethoxy]acetyl]amino]ethoxy]ethoxy]acetyl]amino]butanoyl]amino]butanoyl]-[Arg12,Thr16,Lys24,Leu27,Ser28]-Glucagon] (H-HSQGTFTSDYSRYLDTRRAQDFVK([γGlu-γGlu-AEEA-AEEA-γGlu-C16 diacid])WLLST-OH) came in with a concentration giving a half-maximal response (EC50) in data set [1] of 0.025 nM.

The values are drawn from US9486506B2 (Novo Nordisk A/S, priority 2011, dated 2016).
